Source: the Deep4Chem optical property database
Several values for one entry are separate records, joined by “and”; a condition that tells them apart may be missing. Identical values can stand only once. Each block holds one molecule with its values, some of them ahead of it.

Experiment: solvent given as SMILES

fluorescence lifetime (in CCCCCC): 21.1 ns
SMILES: CCc1c(C(=O)OC)c(C(=O)OC)c2ccc(-c3ccccc3)nn12

fluorescence lifetime (in CC#N): 6.1 ns
SMILES: Cc1cc2c(ccc3c[n+](C)c(C)cc32)c[n+]1C

fluorescence lifetime (in C1CCOC1): 4.63 ns
SMILES: C(=C\c1cc2ccccc2c2ccccc12)/c1c2ccccc2cc2ccccc12

fluorescence lifetime (in ClCCl): 1.1 ns
SMILES: CN(c1ccccc1)c1ccc(N(c2ccccc2)c2ccc3ccc4c(N(c5ccccc5)c5ccc(N(C)c6ccccc6)cc5)ccc5ccc2c3c54)cc1

fluorescence lifetime (in CC#N): 1.74 ns
fluorescence lifetime (in CC(C)O): 3.26 ns
fluorescence lifetime (in CCCCCCCCO): 3.42 ns
fluorescence lifetime (in CCCCCCO): 3.41 ns
fluorescence lifetime (in CCCCO): 3.37 ns
fluorescence lifetime (in CCCO): 3.27 ns
fluorescence lifetime (in CCO): 2.96 ns
fluorescence lifetime (in CN(C)C=O): 2.33 ns
fluorescence lifetime (in CO): 2.5 ns and 2.46 ns
fluorescence lifetime (in O): 1.74 ns and 1.75 ns
fluorescence lifetime (in [2H]O[2H]): 1.84 ns
SMILES: CCN(CC)c1ccc2c(-c3ccccc3C(=O)[O-])c3ccc(=[N+](CC)CC)cc-3oc2c1

fluorescence lifetime (in ClCCl): 6.9 ns
SMILES: CC1=CC(C)=[N+]2C1=C(c1c(-c3ccccn3)nc3ccccn13)c1c(C)cc(C)n1[B-]2(F)F

fluorescence lifetime (in ClCCl): 3.95 ns
SMILES: CC(C)c1cccc(C(C)C)c1N1C(=O)c2cccc3c(Oc4ccc(Cl)cc4)ccc(c23)C1=O

SMILES: CCCCOc1ccc(/C=C/C=C/C=C/c2ccc([N+](=O)[O-])cc2)cc1
fluorescence lifetime (in Cc1ccccc1): 1.7 ns

fluorescence lifetime (in C1CCCCC1): 3.2 ns
fluorescence lifetime (in CC#N): 4.3 ns
fluorescence lifetime (in ClCCl): 3.7 ns
SMILES: O=S1(=O)c2ccc(-c3c4ccccc4cc4ccccc34)cc2-c2cc(-c3c4ccccc4cc4ccccc34)ccc21

fluorescence lifetime (in ClCCl): 6.5 ns
SMILES: Cc1csc2[n+]1[B-](F)(F)n1c(c3cccc4cccc1c43)=N2

fluorescence lifetime (in ClC(Cl)Cl): 1.4 ns
SMILES: CCCCc1cc(-c2cccc(COC)c2)oc1-c1cccc(-c2oc(-c3cccc(COC)c3)cc2CCCC)c1

SMILES: CCCCOC(=O)c1cc(Cl)c2c3c(Cl)cc4c5c(cc(Cl)c(c6c(Cl)cc(C(=O)OCCCC)c1c26)c53)C(=O)N(c1c(C(C)C)cccc1C(C)C)C4=O
fluorescence lifetime (in Cc1ccccc1): 4.86 ns

SMILES: CSC1=C2C=C(c3cc4n(c3)[B-](F)(F)[N+]3=CC=CC3=C4c3c(C)cc(C)cc3C)C(C)=[N+]2[B-](F)(F)n2c(C)ccc21
fluorescence lifetime (in C1CCCCC1): 2.67 ns
fluorescence lifetime (in CC#N): 0.17 ns
fluorescence lifetime (in CC(C)=O): 0.39 ns
fluorescence lifetime (in CCOC(C)=O): 0.97 ns
fluorescence lifetime (in Cc1ccccc1): 1.81 ns

SMILES: CCC(=O)c1ccc2cc(N(C)C)ccc2c1
fluorescence lifetime (in C1CCCCC1): 1.6 ns
fluorescence lifetime (in C1CCOC1): 3.58 ns
fluorescence lifetime (in CC#N): 3.96 ns
fluorescence lifetime (in CCCCCC): 0.29 ns
fluorescence lifetime (in CCO): 3.65 ns
fluorescence lifetime (in CN(C)C=O): 3.85 ns
fluorescence lifetime (in CO): 3.04 ns
fluorescence lifetime (in CS(C)=O): 3.12 ns
fluorescence lifetime (in Cc1ccccc1): 2.33 ns
fluorescence lifetime (in ClC(Cl)Cl): 3.09 ns
fluorescence lifetime (in ClCCl): 3.44 ns
fluorescence lifetime (in O): 2.1 ns
fluorescence lifetime (in OCC(O)CO): 3.8 ns
fluorescence lifetime (in c1ccccc1): 3.3 ns

fluorescence lifetime (in ClCCl): 3.16 ns
SMILES: C1=CC2C=c3c(cc4cccc5cc6ccccc6c3c45)C3=c4ccccc4=CC(=C1)C32 (centres undefined)

fluorescence lifetime (in C1CCCCC1): 15 ns
SMILES: Oc1cccc2ccccc12

SMILES: c1cc2c([nH]c3c4[nH]c5sccc5c4c4nsnc4c23)s1
fluorescence lifetime (in C1CCOC1): 16.2 ns
fluorescence lifetime (in CCOC(C)=O): 16.5 ns
fluorescence lifetime (in CN(C)C=O): 16 ns
fluorescence lifetime (in Cc1ccccc1): 13.8 ns
fluorescence lifetime (in ClCCl): 13.2 ns

fluorescence lifetime (in CC#N): 7.5 ns
SMILES: COc1ccccc1-c1nc(-c2ccccc2)c2ccccn12

SMILES: COC(=O)C(Cc1ccc2oc(-c3ccc(-n4c5ccccc5c5ccccc54)cc3)nc2c1)NC(=O)OC(C)(C)C (centres undefined)
fluorescence lifetime (in C1CCCCC1): 1.37 ns
fluorescence lifetime (in C1CCOC1): 3.32 ns
fluorescence lifetime (in C1COCCO1): 2.49 ns
fluorescence lifetime (in CC1CCCO1): 2.78 ns
fluorescence lifetime (in CC#N): 5.02 ns
fluorescence lifetime (in CC(C)(C)O): 4.03 ns
fluorescence lifetime (in CC(C)=O): 4.28 ns
fluorescence lifetime (in CC(C)CC(C)(C)C): 1.3 ns
fluorescence lifetime (in CC(C)O): 4.49 ns
fluorescence lifetime (in CC(O)CO): 5.74 ns
fluorescence lifetime (in CCCCCCCO): 4 ns
fluorescence lifetime (in CCCCCCO): 4.11 ns
fluorescence lifetime (in CCCCCO): 3.36 ns
fluorescence lifetime (in CCCCO): 4.52 ns
fluorescence lifetime (in CCO): 5.3 ns
fluorescence lifetime (in CCOC(C)=O): 3.08 ns
fluorescence lifetime (in CCOCC): 2.8 ns
fluorescence lifetime (in CN(C)C=O): 4.97 ns
fluorescence lifetime (in CO): 5.34 ns
fluorescence lifetime (in CS(C)=O): 5.45 ns
fluorescence lifetime (in Cc1ccccc1): 1.84 ns
fluorescence lifetime (in OCCO): 6.17 ns

fluorescence lifetime (in ClCCl): 0.69 ns
SMILES: CC(C)(C)NC(=O)c1ccc(-c2cc3ccccc3s2)c2ccc3c4ccccc4c4ccccc4c3c12

fluorescence lifetime (in CC#N): 4.18 ns
fluorescence lifetime (in CC(C)O): 3.96 ns
fluorescence lifetime (in CCCCCCCCO): 3.83 ns
fluorescence lifetime (in CCCCCCO): 3.88 ns
fluorescence lifetime (in CCCCO): 3.89 ns
fluorescence lifetime (in CCCO): 3.95 ns
fluorescence lifetime (in CCO): 3.96 ns
fluorescence lifetime (in CN(C)C=O): 3.86 ns
fluorescence lifetime (in CO): 3.7 ns
fluorescence lifetime (in O): 4.22 ns
fluorescence lifetime (in [2H]O[2H]): 4.36 ns
SMILES: CCNc1cc2oc3c/c(=[NH+]\CC)c(C)cc-3c(-c3ccccc3C(=O)OCC)c2cc1C

SMILES: CN(C)c1ccccc1
fluorescence lifetime (in C1CCCCC1): 3 ns

SMILES: Nc1ccccc1
fluorescence lifetime (in C1CCCCC1): 3.4 ns

fluorescence lifetime (in C1CCOC1): 2.1 ns
SMILES: CCC1(CC)c2cc(N(c3ccccc3)c3ccccc3)ccc2-c2c1c1c(c3c2C(CC)(CC)c2cc(N(c4ccccc4)c4ccccc4)ccc2-3)C(CC)(CC)c2cc(N(c3ccccc3)c3ccccc3)ccc2-1

fluorescence lifetime (in C1CCOC1): 6.42 ns
fluorescence lifetime (in CCCCCC): 5.78 ns
SMILES: COc1ccccc1C1=C2C(C)=CC(C)=[N+]2[B-](F)(F)n2c(C)cc(C)c21

SMILES: Cc1ccccc1[B-]1(c2ccccc2C)n2nc(C(F)(F)F)cc2-c2c3ccccc3cc[n+]21
fluorescence lifetime (in C1CCCCC1): 0.525 ns
fluorescence lifetime (in Cc1ccccc1): 0.425 ns
fluorescence lifetime (in ClCCl): 0.938 ns

fluorescence lifetime (in ClCCl): 1.34 ns
SMILES: COC(=O)c1ccc(C2=C(/C=C/c3ccc(OC)cc3)O[B-](F)(F)[O+]=C2/C=C/c2ccc(OC)cc2)cc1
